In patent US5902736A, “Process for the production of D-α-amino acids by hydrolysis of the corresponding N-carbamyl derivative” (priority 1992, dated 1999):

System: decarbamylase of Comamonas sp. E 222 C
Experiment: Substrate specificity of decarbamylase, cells of Comamonas sp. E 222 C
Assay type: cell-based
Conditions: 1% (w/v) substrate, 200 mM potassium phosphate, cell suspension, 24 hours at 30° C.
Method: For the determination of substrate specificity of decarbamylase of Comamonas sp. E 222 C and Blastobacter sp. A 17 p-4, these strains were cultured at 28° C. in the medium C (as described in Example 2) for 1 day (E 222 C) and 7 days (A 17 p-4). Three ml of the culture medium was centrifuged to separate the microorganism, which was suspended in 300 μl of a substrate solution (200 mM potassium phosphate, 1% (w/v) a substrate as listed below) and incubated for 24 hours at 30° C. (E 222 C) or 50° C. (A 17 p-4).

SMILES | Substrate conversion, Comamonas sp. E 222 c (conversion to amino acids)
NC(=O)NCCC(=O)O [β-Ureidopropionic acid] | ++++ (++++: 100%)
NC(=O)N[C@@H](C(=O)O)c1ccccc1 [N-Carbamyl-D-phenylglycine] | +++ (+++: <80%)
NC(=O)N[C@H](Cc1ccccc1)C(=O)O [N-Carbamyl-D-phenylalanine, N-carbamyl-D-phenylalanine] | ++++ (++++: 100%)
NC(=O)NC(CC(=O)O)C(=O)O (centres unmarked) [Ureidosuccinic acid] | - (-: 0%)
CC(C)C[C@@H](NC(N)=O)C(=O)O [N-Carbamyl-D-leucine] | ++++ (++++: 100%)
CSCCC(NC(N)=O)C(=O)O (racemic) [N-Carbamyl-DL-methionine, N-carbamyl-DL-methionine] | ++ (++: <50%)
NC(=O)N[C@H](CO)C(=O)O [N-Carbamyl-D-serine] | + (+: <10%)
CC(C)[C@@H](NC(N)=O)C(=O)O [N-Carbamyl-D-valine] | ++++ (++++: 100%)
CN(CC(=O)O)C(N)=O [N-Carbamyl-sarcosine] | - (-: 0%)
C[C@@H](O)[C@H](NC(N)=O)C(=O)O (racemic) [N-Carbamyl-DL-threonine] | + (+: <10%)
CCCCC(NC(N)=O)C(=O)O (racemic) [N-Carbamyl-DL-norleucine] | ++ (++: <50%)
NC(=O)N[C@@H](C(=O)O)c1ccc(O)cc1 [N-Carbamyl-D-p-hydroxyphenylglycine] | +++ (+++: <80%)

Now from value to compound:

Substrate conversion, Comamonas sp. E 222 c (conversion to amino acids) | SMILES
- (-: 0%) | O=C1NC(=O)C(c2ccccc2)N1 (racemic) [DL-5-Phenylhydantoin]
++++ (++++: 100%) | C[C@@H](NC(N)=O)C(=O)O [N-Carbamyl-D-alanine]
++ (++: <50%) | CCCC(NC(N)=O)C(=O)O (racemic) [N-Carbamyl-DL-norvaline]
- (-: 0%) | CC1NC(=O)NC1=O (racemic) [DL-5-Methylhydantoin]
- (-: 0%) | O=C1NC(=O)C(c2ccc(O)cc2)N1 (racemic) [DL-5-p-Hydroxyphenylhydantoin]

Same assay, conditions: cell suspension, 24 hours at 30° C.

SMILES | hydrolysis by Comamonas sp. E 222 C, in words
NC(=O)NCCC(=O)O [β-Ureidopropionic acid] | could hydrolize

System: Comamonas sp. E 222 C
Experiment: Promoters for the production of Comamonas sp. E 222 C decarbamylase
Assay type: cell-based
Conditions: 0.15% (w/v) additive in medium D, 2 days at 28° C.; D-HPG from 35 mM C-D-HPG, 24 hours at 30° C.
Method: The strain was cultured in a nutrient medium D (1 g/l KH2 PO4, 1 g/l K2 HPO4, 0.3 g/l MgSO4 ·7H2 O, 3 g/l yeast extract, 3 g/l meat extract, 10 g/l glycerol, 2 g/l polypeptone; pH 7.0) for 2 days at 28° C. The culture medium additionally contained a substance as listed in FIG. 2 in a concentration of 0.15% (w/v).
One ml of the culture medium was centrifuged to collect the microorganism, which was suspended in 100 μl of a substrate solution (35 mM C-D-HPG, 200 mM potassium phosphate; pH 7.0). After 24 hours at 30° C., D-HPG was quantitated by HPLC according to the procedure described in Example 2.

SMILES | decarbamylase productivity of Comamonas sp. E 222 C
NC(=O)NCCC(=O)O [β-Ureidopropionic acid] | improved
CSCCC(NC(N)=O)C(=O)O (racemic) [N-Carbamyl-DL-methionine, N-carbamyl-DL-methionine] | improved

Now from value to compound:

decarbamylase productivity of Comamonas sp. E 222 C | SMILES
improved | NC(N)=O [urea]
improved | N[C@@H](C(=O)O)c1ccccc1 [D-phenylglycine]

System: decarbamylase of Blastobacter sp. A 17 p-4
Experiment: Substrate specificity of decarbamylase, cells of Blastobacter sp. A 17 p-4
Assay type: cell-based
Conditions: 1% (w/v) substrate, 200 mM potassium phosphate, cell suspension, 24 hours at 30° C.
Method: For the determination of substrate specificity of decarbamylase of Comamonas sp. E 222 C and Blastobacter sp. A 17 p-4, these strains were cultured at 28° C. in the medium C (as described in Example 2) for 1 day (E 222 C) and 7 days (A 17 p-4). […] (E 222 C) or 50° C. (A 17 p-4).

SMILES | Substrate conversion, Blastobacter sp. A 17 p-4 (conversion to amino acids)
NC(=O)NCCC(=O)O [β-Ureidopropionic acid] | - (-: 0%)
NC(=O)N[C@@H](C(=O)O)c1ccccc1 [N-Carbamyl-D-phenylglycine] | +++ (+++: <80%)
NC(=O)N[C@H](Cc1ccccc1)C(=O)O [N-Carbamyl-D-phenylalanine, N-carbamyl-D-phenylalanine] | +++ (+++: <80%)
NC(=O)NC(CC(=O)O)C(=O)O (centres unmarked) [Ureidosuccinic acid] | - (-: 0%)
CC(C)C[C@@H](NC(N)=O)C(=O)O [N-Carbamyl-D-leucine] | +++ (+++: <80%)
CSCCC(NC(N)=O)C(=O)O (racemic) [N-Carbamyl-DL-methionine, N-carbamyl-DL-methionine] | ++ (++: <50%)
NC(=O)N[C@H](CO)C(=O)O [N-Carbamyl-D-serine] | - (-: 0%)
CC(C)[C@@H](NC(N)=O)C(=O)O [N-Carbamyl-D-valine] | +++ (+++: <80%)
CN(CC(=O)O)C(N)=O [N-Carbamyl-sarcosine] | - (-: 0%)
C[C@@H](O)[C@H](NC(N)=O)C(=O)O (racemic) [N-Carbamyl-DL-threonine] | - (-: 0%)
CCCCC(NC(N)=O)C(=O)O (racemic) [N-Carbamyl-DL-norleucine] | ++ (++: <50%)
NC(=O)N[C@@H](C(=O)O)c1ccc(O)cc1 [N-Carbamyl-D-p-hydroxyphenylglycine] | ++ (++: <50%)
O=C1NC(=O)C(c2ccccc2)N1 (racemic) [DL-5-Phenylhydantoin] | ++ (++: <50%)
C[C@@H](NC(N)=O)C(=O)O [N-Carbamyl-D-alanine] | +++ (+++: <80%)
CCCC(NC(N)=O)C(=O)O (racemic) [N-Carbamyl-DL-norvaline] | ++ (++: <50%)
CC1NC(=O)NC1=O (racemic) [DL-5-Methylhydantoin] | ++ (++: <50%)
O=C1NC(=O)C(c2ccc(O)cc2)N1 (racemic) [DL-5-p-Hydroxyphenylhydantoin] | ++ (++: <50%)

System: Blastobacter sp. A 17 p-4
Experiment: Promoters for the production of Blastobacter sp. A 17 p-4 decarbamylase
Assay type: cell-based
Conditions: 2 mM metal ion plus 0.15% (w/v) uracil in medium D, 4 days at 28° C.
Method: The strain was cultured at 28° C. for 3 days in the medium D (as defined in Example 4) additionally containing 0.15% (w/v) of a substance as listed in FIG. 7. Then, D-HPG was formed in the same way as in Example 4 but that the reaction temperature was 40° C., and quantitated by HPLC.
In order to examine the effects of metal ions on the enzyme productivity, the strain was cultured at 28° C. for 4 days in the medium D additionally containing 0.15% (w/v) of uracil and 2 mM a metal ion as listed in FIG. 8. It was found by quantitating D-HPG that ions such as Fe^2+, Fe^3+, Li^+, Cs^+, Be^2+, Mg^2+, Mn^2+, Co^2+ and Al^3+ increased the decarbamylase yield.

SMILES | decarbamylase yield of Blastobacter sp. A 17 p-4, effect of metal ions
[Cs+] [Cs^+] | increased
[Al+3] [Al^3+] | increased
[Li+] [Li^+] | increased
[Mn+2] [Mn^2+] | increased
[Co+2] [Co^2+] | increased
[Mg+2] [Mg^2+] | increased
[Fe+2] [Fe^2+] | increased
[Be+2] [Be^2+] | increased

Same assay, conditions: 0.15% (w/v) additive in medium D, 3 days at 28° C.; D-HPG formation at 40° C.

SMILES | decarbamylase yield of Blastobacter sp. A 17 p-4
NC(=O)NCCC(=O)O [β-Ureidopropionic acid] | increased
O=c1cc[nH]c(=O)[nH]1 [uracil] | increased
O=C1CCNC(=O)N1 [dihydrouracil] | increased
